Assay results taken from ChEMBL document CHEMBL4004820 (J Med Chem, 2017).

Key:
[1] = Antiviral activity against Influenza A virus (A/WSN/1933(H1N1)) expressing wild-type M2 proton channel infected in MDCK cells assessed as reduction in cytopathic effect after 48 hrs by crystal violet staining-based microscopic analysis; type: functional, cell-based
[2] = tested on: Influenza A virus (A/Udorn/307/1972(H3N2))
[3] = Binding affinity to Influenza virus A (A/Udorn/72 (H3N2)) M2 protein at pH 7.5 in presence of KCl by electrophysiology method; set-up: species or system Influenza A virus (A/udorn/1972(H3N2))
[4] = tested on: Influenza A virus (A/Udorn/307/1972(H3N2)); remark: listed apart in the source
MDCK = test: Cytotoxicity against MDCK cells measured after 72 hrs et staining-based microscopic analysis; type: cell-based, Canis lupus familiaris; conditions: dog
[5] = tested on: Influenza A virus (A/Udorn/307/1972(H3N2)); remark: listed apart in the source
[6] = tested on: Influenza A virus (A/California/07/2009(H1N1)); test: Inhibition of full-length Influenza A virus (A/California/07/2009(H1N1)) M2 proton channel expressed in HEK cells assessed as inhibition of low-pH-dependent inward proton currents at 100 uM and pH 5.5 measured after 30 mins in presence of CaCl2 by electrophysiology method relative to control; type: cell-based
[7] = tested on: Influenza A virus (A/California/07/2009(H1N1)); test: Inhibition of full-length Influenza A virus (A/California/07/2009(H1N1)) M2 proton channel expressed in HEK cells assessed as inhibition of low-pH-dependent inward proton currents at 100 uM and pH 5.5 measured after 3 mins in presence of CaCl2 by electrophysiology method relative to control; type: cell-based

Row | Compound | IC50 ([1]; Influenza A virus, MDCK, 48 h, read-out: IC50) | -TdeltaS [2] | Kd [3] | Activity [4] | CC50 (MDCK) | Activity [5] | IC50 [1] | inhibition [6] | inhibition [7]
1 | CCOC(=O)C1=C[C@@H](OC(CC)CC)[C@H](NC(C)=O)[C@@H](N)C1 [OSELTAMIVIR] | 0.02 µM | – | – | – | – | – | – | – | –
2 | NC12CC3CC(CC(C3)C1)C2 [AMANTADINE] | – | -1.11 kcal/mol | 9 µM | 22 degree | > 100 µM | 32 degree | Not Active | – | –
3 | C1CNC2(C1)C1CC3CC(C1)CC2C3 (stereo not drawn) | – | -3.97 kcal/mol | – | – | > 100 µM | – | Not Active | 5% | 4%
4 | CN1CCCC12C1CC3CC(C1)CC2C3 (stereo not drawn) | – | -4.46 kcal/mol | – | – | > 100 µM | – | Not Active | – | –
5 | CC1(N)C2CC3CC(C2)CC1C3 (stereo not drawn) | – | -1.51 kcal/mol | – | – | 25.6 µM | – | Not Active | – | –
6 | CCC1(N)C2CC3CC(C2)CC1C3 (stereo not drawn) | – | -1.38 kcal/mol | – | – | > 100 µM | – | Not Active | – | –
7 | CCCC1(N)C2CC3CC(C2)CC1C3 (stereo not drawn) | – | -0.932 kcal/mol | – | 22 degree | > 100 µM | 32 degree | Not Active | – | –
8 | NC1(C23CC4CC(CC(C4)C2)C3)CCCC1 | – | – | – | – | > 100 µM | – | Not Active | 4% | 4%
9 | NC1C2CC3CC(C2)CC1C3 (stereo not drawn) | – | -0.93 kcal/mol | – | – | 70.5 µM | – | Not Active | – | –
10 | CC12CC3CC(CC(C3)C13CCCN3)C2 (stereo not drawn) | – | -3 kcal/mol | – | – | > 100 µM | – | Not Active | – | –
11 | NC1(C23CC4CC(CC(C4)C2)C3)CCCCC1 | – | – | – | – | > 100 µM | – | Not Active | – | –
